The numbers were not newly measured in patent US20170252421A1 (priority 2014, published 2017), which cites them from elsewhere.

For `CN(C)C(=N)N=C(N)N` [metformin, Metformin], where the note is “oral metformin”, the “patients discontinuing the therapy due to the side effects” value was “up to 5%” and the “patients experiencing gastrointestinal side effects” value was “Up to 20%”. Moreover, under “patients taking metformin”, the “patients developing vitamin B12 deficiency” value is recorded as 77%. Also, the “reduction of morbidity and mortality rates” value (treating insulin resistance) is “about 30%”.
